Reference: patent publication US9908897B2, “Spirocyclic derivatives” (CHRONOS THERAPEUTICS LIMITED, priority 2014, dated 2018)

Experiments:
[1] = target: human dopamine transporter (DAT) (Homo sapiens (Human), UniProt Q01959); test: Scintillation Proximity Assay (SPA) competition binding, human DAT; settings: recombinant hDAT-CHO membranes, [3H]WIN-35,428
How it was run: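 SPA binding on membranes from CHO cells stably expressing human DAT, with 5 nM [3H]WIN-35,428, WGA-PVT beads and 0.02% BSA in HEPES/NaCl/KCl buffer pH 7.4.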

[2] = target: human serotonin transporter (SERT) (Homo sapiens (Human), UniProt P31645); test: Scintillation Proximity Assay (SPA) competition binding, human SERT; settings: recombinant hSERT-CHO membranes, [3H]citalopram
[3] = target: human norepinephrine transporter (NET) (Homo sapiens (Human), UniProt P23975); test: Scintillation Proximity Assay (SPA) competition binding, human NET; settings: recombinant hNET-CHO membranes, [3H]nisoxetine
[4] = target: human ERG potassium channel (hERG) (Homo sapiens (Human), UniProt Q12809); test: hERG tail current recording, Rapid ICE automated patch-clamp; format: cell-based; settings: HEK293 cells stably transfected with hERG
Method: Measure of the Effect on hERG Channel by Tail Current Recording Using In Vitro Rapid ICE™
The potency of the compounds of the invention in inhibiting human ERG potassium channel (hERG) tail current is assessed in a recombinant HEK293 cell line stably transfected with hERG cDNA using Rapid ICE™ (Rapid Ion Channel Electrophysiology) assay. Rapid ICE™ is an automated patch-clamp assay utilizing the PatchXpress 7000A system (Molecular Devices Corporation) or the QPatch HTX system (Sophion Bioscience A/S).
Briefly cells are cultivated for 24 to 72 hours before recordings in minimum essential medium supplemented with 10% FBS, 1% non-essential amino acids, 1% sodium pyruvate, 2 mM L-glutamine. The day of the experiment cells are detached with TrypLE and prepared to be loaded on the instrument. For PatchXpress cells are finally resuspended in 150 μl of Extracellular Buffer whereas for QPatch cells are resuspended in 7 ml Serum-Free Media containing 25 mM Hepes and Soybean trypsin inhibitor and immediately placed in the cell storage tank of the machine. The composition of the Extracellular Buffer is (mM): NaCl 137; KCl 4; CaCl2 1.8; MgCl2 1.0; D-glucose 10; N 2 hydroxyethylpiperazine-N′-2-ethanesulfonic acid (HEPES) 10; pH 7.4 with 1 M NaOH. The composition of the pipette solution is (mM): KCl 130; MgCl2 1.0; Ethylene glycol-bis(β-aminoethyl ether)-N,N,N′,N′-tetraacetic acid (EGTA) 5; MgATP 5; HEPES 10; pH 7.2 with 1 M KOH. The voltage protocol includes the following steps: step from −80 mV to −50 mV for 200 ms, +20 mV for 4.8 s, step to −50 mV for 5 s then step to the holding potential of −80 mV. Compounds of the invention are dissolved in DMSO and diluted in Extracellular Buffer to achieve final test concentrations (0.1, 1 and 10 μM) in 0.1% DMSO. The voltage protocol is run and recorded continuously during the experiment. The vehicle, corresponding to 0.1% DMSO in Extracellular Buffer, is then applied for 3 min followed by the test substance in triplicate. The standard combined exposure time is 5 min. The average of tail current amplitude values recorded from 4 sequential voltage pulses is used to calculate for each cell the effect of the test substance by calculating the residual current (% control) compared with vehicle pre-treatment. Data are reported as % inhibition for each concentration tested and IC50 values are estimated using DataXpress or QPatch software. At least two cells are tested, more if results diverge.

Sequence of human ERG potassium channel (hERG) (Q12809 whole entry): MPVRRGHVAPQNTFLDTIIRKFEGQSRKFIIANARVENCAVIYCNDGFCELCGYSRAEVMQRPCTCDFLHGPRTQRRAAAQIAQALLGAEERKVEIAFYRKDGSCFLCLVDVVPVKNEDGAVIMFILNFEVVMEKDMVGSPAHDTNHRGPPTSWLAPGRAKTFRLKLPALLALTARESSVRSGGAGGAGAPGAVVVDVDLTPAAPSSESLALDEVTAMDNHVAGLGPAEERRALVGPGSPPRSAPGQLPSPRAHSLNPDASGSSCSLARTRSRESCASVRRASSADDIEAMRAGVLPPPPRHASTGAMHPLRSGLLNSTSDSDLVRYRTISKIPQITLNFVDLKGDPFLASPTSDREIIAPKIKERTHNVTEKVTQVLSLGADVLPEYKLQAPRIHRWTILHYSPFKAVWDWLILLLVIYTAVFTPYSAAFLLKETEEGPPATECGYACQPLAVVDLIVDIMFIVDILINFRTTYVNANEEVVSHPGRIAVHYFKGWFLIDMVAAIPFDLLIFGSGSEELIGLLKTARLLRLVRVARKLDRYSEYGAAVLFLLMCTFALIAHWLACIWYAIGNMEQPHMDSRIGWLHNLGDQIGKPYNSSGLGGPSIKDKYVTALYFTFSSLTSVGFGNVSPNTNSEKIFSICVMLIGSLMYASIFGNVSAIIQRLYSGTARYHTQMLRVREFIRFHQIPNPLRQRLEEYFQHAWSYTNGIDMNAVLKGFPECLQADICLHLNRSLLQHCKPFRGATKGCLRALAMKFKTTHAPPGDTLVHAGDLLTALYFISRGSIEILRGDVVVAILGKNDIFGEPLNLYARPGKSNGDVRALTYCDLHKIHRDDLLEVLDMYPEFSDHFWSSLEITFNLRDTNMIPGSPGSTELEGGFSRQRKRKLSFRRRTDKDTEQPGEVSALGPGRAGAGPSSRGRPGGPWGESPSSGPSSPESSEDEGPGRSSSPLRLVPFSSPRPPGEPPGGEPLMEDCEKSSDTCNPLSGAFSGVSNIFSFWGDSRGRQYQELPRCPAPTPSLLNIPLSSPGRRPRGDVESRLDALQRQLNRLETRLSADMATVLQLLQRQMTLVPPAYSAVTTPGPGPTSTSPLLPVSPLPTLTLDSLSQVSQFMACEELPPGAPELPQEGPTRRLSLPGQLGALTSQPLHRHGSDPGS
Sequence of human norepinephrine transporter (NET) (P23975 whole entry): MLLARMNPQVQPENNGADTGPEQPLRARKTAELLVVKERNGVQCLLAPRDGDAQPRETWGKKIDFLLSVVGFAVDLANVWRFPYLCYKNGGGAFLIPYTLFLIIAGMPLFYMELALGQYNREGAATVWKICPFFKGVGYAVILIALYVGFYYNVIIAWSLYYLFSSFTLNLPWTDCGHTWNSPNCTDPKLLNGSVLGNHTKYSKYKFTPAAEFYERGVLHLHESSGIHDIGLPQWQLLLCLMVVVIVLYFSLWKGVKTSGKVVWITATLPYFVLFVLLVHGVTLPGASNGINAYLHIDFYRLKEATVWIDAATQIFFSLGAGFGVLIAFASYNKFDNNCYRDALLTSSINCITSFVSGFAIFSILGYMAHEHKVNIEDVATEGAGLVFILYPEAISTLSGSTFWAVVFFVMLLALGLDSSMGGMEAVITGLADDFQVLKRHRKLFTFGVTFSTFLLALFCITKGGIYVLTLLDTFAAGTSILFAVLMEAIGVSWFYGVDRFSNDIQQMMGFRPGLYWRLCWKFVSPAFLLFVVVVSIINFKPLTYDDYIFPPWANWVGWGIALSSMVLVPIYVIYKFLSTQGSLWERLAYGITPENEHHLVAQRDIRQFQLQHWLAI
Sequence of human dopamine transporter (DAT) (Q01959 whole entry): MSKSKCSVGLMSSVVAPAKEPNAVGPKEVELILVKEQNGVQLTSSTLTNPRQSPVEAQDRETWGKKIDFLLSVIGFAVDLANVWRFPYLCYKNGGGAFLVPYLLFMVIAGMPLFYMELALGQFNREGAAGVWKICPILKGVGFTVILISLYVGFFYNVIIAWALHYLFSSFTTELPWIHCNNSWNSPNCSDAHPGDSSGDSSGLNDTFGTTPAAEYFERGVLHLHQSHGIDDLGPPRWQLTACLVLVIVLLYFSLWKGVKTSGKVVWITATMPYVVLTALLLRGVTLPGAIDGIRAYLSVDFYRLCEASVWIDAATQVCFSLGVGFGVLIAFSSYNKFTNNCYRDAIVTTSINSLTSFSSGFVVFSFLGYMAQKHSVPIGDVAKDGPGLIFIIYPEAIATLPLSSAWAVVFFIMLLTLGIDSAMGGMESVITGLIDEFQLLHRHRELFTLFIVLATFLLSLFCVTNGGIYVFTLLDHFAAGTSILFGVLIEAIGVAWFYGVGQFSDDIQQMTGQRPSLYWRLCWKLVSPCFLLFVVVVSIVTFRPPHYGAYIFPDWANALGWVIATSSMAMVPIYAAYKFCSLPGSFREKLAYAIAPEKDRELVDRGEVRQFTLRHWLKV
Sequence of human serotonin transporter (SERT) (P31645 whole entry): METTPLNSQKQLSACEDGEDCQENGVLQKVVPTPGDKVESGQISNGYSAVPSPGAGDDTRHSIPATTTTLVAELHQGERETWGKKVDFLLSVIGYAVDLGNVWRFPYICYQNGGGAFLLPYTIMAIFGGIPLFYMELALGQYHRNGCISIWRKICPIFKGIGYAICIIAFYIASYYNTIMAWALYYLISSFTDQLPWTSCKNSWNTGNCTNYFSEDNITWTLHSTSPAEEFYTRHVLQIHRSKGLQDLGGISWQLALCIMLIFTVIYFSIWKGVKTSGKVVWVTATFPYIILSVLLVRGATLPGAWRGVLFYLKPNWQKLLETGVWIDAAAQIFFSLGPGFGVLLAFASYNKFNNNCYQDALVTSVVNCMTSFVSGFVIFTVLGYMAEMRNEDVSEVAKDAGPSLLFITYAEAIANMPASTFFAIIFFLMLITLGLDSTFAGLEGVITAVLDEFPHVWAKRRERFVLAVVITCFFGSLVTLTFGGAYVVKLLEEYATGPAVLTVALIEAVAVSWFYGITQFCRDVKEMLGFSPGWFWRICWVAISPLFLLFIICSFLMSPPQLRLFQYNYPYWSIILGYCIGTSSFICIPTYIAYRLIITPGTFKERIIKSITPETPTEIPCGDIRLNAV

| SMILES | pIC50 DAT [1] | pIC50 SERT [2] | pIC50 NET [3] | pIC50 hERG [4] |
| --- | --- | --- | --- | --- |
| Fc1cccc(Oc2cc(F)c(F)cc2N2CCC3(CCNCC3)C2)c1 [Example 90, 2-[4,5-difluoro-2-(3-fluorophenoxy)phenyl]-2,8-diazaspiro[4.5]decane] | 8.36 | 6.31 | 6.85 | 6.1 |
| Fc1cccc(Oc2cc(C(F)(F)F)nc(N3CCC4(CNCCC45OCCO5)C3)n2)c1 (stereo not drawn) [Example 87, 8-[4-(3-fluorophenoxy)-6-(trifluoromethyl)pyrimidin-2-yl]-1,4-dioxa-8,12-diazadispiro[4.0.4^6.4^5]tetradecane] | 8.67 | 5.43 | 6.82 | 6.0 |
| Cc1cc(Oc2cccc(C(F)(F)F)c2)nc(N2CCC3(CC2)CNCCO3)n1.Cl [Example 48, 9-{4-methyl-6-[3-(trifluoromethyl)phenoxy]pyrimidin-2-yl}-1-oxa-4,9-diazaspiro[5.5]undecane hydrochloride] | 6.50 | 5.58 | 5.48 | 5.6 |
| Cc1cc(Oc2ccccc2)nc(N2CCC3(CC2)CNCCO3)n1.Cl [Example 43, 9-(4-methyl-6-phenoxypyrimidin-2-yl)-1-oxa-4,9-diazaspiro[5.5]undecane hydrochloride] | 8.01 | 4.42 | 6.11 | 5.7 |
| Cc1cccc(Oc2cc(C)nc(N3CCC4(CC3)CNCCO4)n2)c1.Cl [Example 45, 9-[4-methyl-6-(3-methylphenoxy)pyrimidin-2-yl]-1-oxa-4,9-diazaspiro[5.5]undecane hydrochloride] | 7.59 | 4.83 | 5.54 | 5.7 |
| Fc1cccc(Oc2cc(F)c(F)cc2N2CCC3(CCNC3)CC2)c1 [Example 91, 8-[4,5-difluoro-2-(3-fluorophenoxy)phenyl]-2,8-diazaspiro[4.5]decane] | 8.01 | 7.29 | 6.26 | 5.9 |
| Fc1cccc(Oc2cc(F)cc(N3CCC4(CC3)CNCCO4)c2)c1 [Example 8, 9-[3-fluoro-5-(3-fluorophenoxy)phenyl]-1-oxa-4,9-diazaspiro[5.5]undecane] | 8.25 | 7.10 | 6.90 | 6.3 |
| Fc1cccc(Oc2cc(F)c(F)cc2N2CCC3(CCCNC3)C2)c1 (stereo not drawn) [Example 84, 2-[4,5-difluoro-2-(3-fluorophenoxy)phenyl]-2,7-diazaspiro[4.5]decane] | 7.94 | 6.33 | 6.76 | 6.6 |
| COc1cc(Oc2cccc(F)c2)nc(N2CCC3(CC2)CNCCO3)n1.Cl [Example 66, 9-[4-(3-fluorophenoxy)-6-methoxypyrimidin-2-yl]-1-oxa-4,9 diazaspiro[5.5]undecane hydrochloride] | 8.29 | 5.27 | 6.52 | 5.7 |
